Values quoted from earlier work as cited in patent publication US11291812B2, “Sinus delivery of sustained release therapeutics” (Intersect ENT, Inc., priority 2003, dated 2022).

Test system: sinusitis
Conditions: ampicillin delivered from a poly(lactic-co-glycolic)acid (PLGA) film placed in rabbit maxillary sinus

CC1(C)S[C@@H]2[C@H](NC(=O)[C@H](N)c3ccccc3)C(=O)N2[C@H]1C(=O)O [ampicillin]
clinical signs of sinusitis: improved
